In patent US10736912B2, “Compositions containing PUFA and/or uridine and methods of use thereof” (MASSACHUSETTS INSTITUE OF TECHNOLOGY, priority 2005, dated 2020):

Tests used:
SHSY-5Y cells = experiment: 14C-choline incorporation into phospholipids in SHSY-5Y cells; type: cell-based, human; conditions: for Phospholipid synthesis enhanced: 10 μM fatty acid, 18 hr, FIG. 3A
Description: SHSY-5Y cells were grown to near confluency in DMEM+10% FBS in 35 mm dishes. Cells were incubated for 18 hr in serum-free DMEM+1% FBS containing 30 μM choline+/−10 μM of DHA, arachidonic acid, or palmitic acid. Cells were then labeled, and labeled phospholipids were quantified as described for Example 1.
DHA was dissolved in ethanol to a […] concentration and frozen in 10 microliter aliquots at −80° C. For each experiment, one aliquot was diluted in ethanol to 10 micromolar; the volume giving the desired final solution in incubation medium was mixed with an equal volume of BSA solution (1 gm/ml).
The effect of omega-6 fatty acids on phospholipid synthesis was next examined in SHSY-5Y cells, a human neuroblastoma cell line. In this case, phospholipid synthesis was enhanced by arachidonic acid, an omega-6 fatty acid, but not by DHA or palmitic acid (FIG. 3A).
The effect of arachidonic acid on phospholipid synthesis in SHSY-5Y cells was further characterized as described for omega-3 fatty acids and PC-12 cells in Example 2.

[1] = system: brain phospholipid levels; experiment: Brain phospholipid levels in gerbils given UMP diet and/or PUFA by gavage; type: in vivo, gerbil; conditions: for Brain phospholipid levels: Table 6
Description: (§1) Cells were homogenized in 100 volumes of ice-cold deionized water using a tissue degrader (Polytron PT 10-35, Kinematica AG, Switzerland); 1 ml of aliquots were then mixed with 3 ml of chloroform+methanol mixture (2:1 v/v) and vortexed vigorously for 30 seconds. After cooling for 1 h on ice, the mixture was mixed sequentially with 3 ml of chloroform+methanol mixture (2:1 v/v) and 1 ml of ice-cold deionized water. The mixture was vortexed vigorously and allowed to stand overnight in the cold room (18 h). The organic (lower) and aqueous (upper) phases of the mixtures were separated by centrifugation (10 min at 4° C.; 1000 g). An aliquot (2 ml) of the upper phase was used for determination of CDP-Choline (see below), and 0.1-0.4 ml aliquots of the lower phase were dried under vacuum for phospholipid analysis. Residues of 0.1 ml aliquots of the lower phase were assayed for total phospholipid content by measuring phosphorus. Residues of 0.4 ml aliquots of the lower phase were reconstituted in 40 μl methanol and subjected to thin-layer chromatography using silica G plates (Adsorbosil Plus-1®, Alltech), and a system consisting of chloroform/ethanol/triethylamine/water (30:34:30:8) as the mobile phase. Phospholipid standards were used to identify the corresponding bands under UV light after the plates were sprayed with 0.1% diphenylhexatriene in petroleum ether. Bands for individual phospholipid classes (PC, PE, SM, PS and PI) were scraped off the plates and extracted into 1 ml of methanol; dried under vacuum; and assayed for phosphorus content. Total phosphorus was determined by comparison with standard curves by using KH2PO4 run with each assay. To each sample was added 0.5 ml of 4.5% HclO4/27% H2SO4 and tubes were heated at 180° C. for 3 h. After cooling to room temperature, 5 ml of the color reagent (a 10:1 dilution of solutions containing 2.5 mg/ml ammonium molybdate, 8.2 mg/ml sodium acetate and 100 mg/ml ascorbic acid respectively) was added and the tubes were incubated for 2 h, 37° C. Absorbance was measured spectrophotometrically at 820 nm. Phospholipid mass was determined by multiplying the phosphorus content by 25.
Control standard diet (Table 4) consisted of Teklad Global 16% protein rodent diet (Harlan Teklad, Madison, Wis.), which contained 0.1% choline chloride (CC), corresponding to a daily dose of 50 mg/kg/day. UMP was provided as 0.5% UMP·2Na^+ weight/weight, added to the control diet, also prepared by Harlan Teklad, corresponding to 240 mg/kg/day UMP. DHA was administered as 300 mg/kg/day in 200 microliter (mcL)/day 5% Arabic Gum solution, while groups not receiving DHA were administered vehicle (5% Arabic Gum) alone. DHA was provided by Nu-Chek Prep (Elysian, Minn.) and UMP by Numico (Wagenigen, NL).
Gerbils were anesthetized with ketamine and xylazine (80 and 10 mg/kg bwt, i.p.) and sacrificed by immersing the head into liquid nitrogen for 2 min, followed by decapitation. Brains were immediately and quickly (30 seconds) removed using a bone rongeur and stored at −80° C.
Frozen brain hemispheres were weighed and homogenized in 100 volumes of ice-cold deionized water using a tissue degrader (Polytron PT 10-35, Kinematica AG, Switzerland), then analyzed as described in Example 1.
Protein in whole brain homogenate sample was measured for using bicinchoninic acid reagent (Perkin Elmer, Norwalk, Conn., USA). DNA was measured by measuring 460 nm emission of samples on a fluorometer in the presence of bisbenzimidizole, a fluorescent dye known as Hoechst H 33258 (American Hoechst Corporation), which has an excitation maximum at 356 nm and an emission maximum of 458 when bound to DNA.
Male gerbils weighing 80-100 g were divided into 4 groups of 8 gerbils and administered the supplements depicted in Table 1: […]

brain CDP-choline levels = experiment: Brain CDP-choline and CDP-ethanolamine levels in gerbils; type: in vivo, gerbil; conditions: 28 days
Source text: FIGS. 5A and 5B. FIG. 5A illustrates the effect Effects of DHA on brain CDP-choline levels (FIG. 5A) and while FIG. 5B illustrates the effect of DHA on brain CDP-ethanolamine levels (FIG. 5B). Groups of 8 gerbils received either a control or a UMP-containing diet, and, by gavage, DHA (in a vehicle of 5% gum Arabic solution) or 5% gum Arabic solution alone for 28 days. On the 29th day brains were harvested and assayed for CDP-choline. Data are presented as means±SEM. Statistical analysis was performed using one- or two-way ANOVA followed by Tukey test. a: P<0.05 when compared with the values for control diet plus vehicle group; b: P<0.05 when compared with values for UMP diet plus vehicle group.
Aliquots (2 ml) of the upper (aqueous) phase were dried under a vacuum, reconstituted, and injected into an HPLC. The dried samples were reconstituted in 100-200 μl water and were analyzed by HPLC on an anion exchange column (Alltech Hypersil APS-2, […], 250×4.6 mm). CDP-choline was eluted with a linear gradient of buffers A (H3PO4, 1.75 mM, pH 2.9) and B (NaH2PO2, 500 mM, pH 4.5) from 0 to 100% B over period of 30 min. With this system, CDP-choline was resolved from closely co-eluting substances such as UMP in an isocratic system over a period of 40 min. The retention time for CDP-choline was 9.5 min. The column was washed with buffer B at the end of each experiment and every several days to remove retained nucleotides. Individual nucleotide peaks were detected by UV absorption at 280 nm and were identified by comparison with the positions of authentic standards, as well as by the addition of nucleotide standards to samples.
To determine the effect of PUFA administration on CDP-choline levels, brain CDP-choline levels were measured in the animals from the previous Example. Administration of DHA and/or UMP decreased CDP-choline levels (FIG. 5A) and CDP-ethanolamine levels (FIG. 5B). DHA reduced CDP-choline levels by 26% (compared with those receiving just the control diet and DHA's vehicle), and in UMP-treated gerbils by 21% (compared with those receiving UMP-containing diet and DHA's vehicle) (both P<0.05).

[2] = system: brain phospholipid levels; experiment: Brain phospholipid levels in rat pups of treated pregnant and nursing mothers; type: in vivo; conditions: rat pups, postnatal day 20, mean
Description: In another study, pregnant rats were allowed to consume ad libitum, for 10 days before parturition and 20 days while nursing, either a choline-containing control diet or this diet supplemented with uridine as UMP; half of each group also received DHA or its diluent daily, by gavage. Pups were then sacrificed and brain slices were examined to determine numbers of hippocampal dendritic spines.
Pregnant and nursing rats were administered DHA and/or uridine as described in Example 9. At 20 days post-birth, rats were sacrificed and brain samples were obtained and assayed for phospholipids. Administration of DHA alone increased brain PC, PI, PE, and sphingomyelin (SM) per cell (DNA) by 36, 166, 38, and 78%, respectively. UMP markedly amplified the effects of DHA to 66, 210, 68, and 99% of control, respectively (Table 8). These increases were greater than those observed in adult animals. Similar results were obtained when normalizing to protein (Table 9). Thus, administration of DHA and/or uridine to pregnant and nursing mothers is able to increase phospholipid levels in the offspring.

PC-12 cells = experiment: 14C-choline incorporation into phospholipids in PC-12 cells; type: cell-based; conditions: 5 μM fatty acid, 18 hr pre-incubation, then 14C-choline 2.5 hr; FIG. 1
Description: PC-12 cells were maintained in Dulbecco's modified Eagle's medium (DMEM)+10% fetal bovine serum (FBS). For experiments, cells were grown in quintuplicate collagen-coated 35 millimeter (mm) dishes. Cells were incubated for 18 hours (hr) in serum-free DMEM containing 28 μM choline+/−5 micromolar (μM) of DHA, oleic acid, or palmitic acid. Cells were then labeled for 2.5 hr with 0.5 microcurie (μCi)/ml ^14C-choline in serum-free DMEM containing 10-micromolar (μM) choline.
as §1, with “To each sample was added 0.5 ml of 4.5% HclO4/27% H2SO4 and tubes were heated at 180° C. for 3 h. After cooling to room temperature, 5 ml of the color reagent (a 10:1 dilution of solutions containing 2.5 mg/ml ammonium molybdate, 8.2 mg/ml sodium acetate and 100 mg/ml ascorbic acid respectively) was added and the tubes were incubated for 2 h, 37° C.” left out
In order to assess the effect of omega-3 fatty acids on phospholipid synthesis, PC-12 cells were incubated with ^14C-labeled choline, following an 18-hour pre-incubation with or without DHA. Incorporation of label into phospholipids was then measured. […]
To further characterize the stimulation of phospholipid synthesis by omega-3 fatty acids, PC-12 cells were pre-treated with different doses of DHA and exposed to labeled choline as described in Example 1, then incorporation of ^14C-label into phospholipids was measured. […]

[3] = Table 9, nmol per microgram DNA

`CCCCCC=CCC=CCC=CCC=CCCCC(=O)O` [AA, 5,8,11,14-eicosatetraenoic acid] was tested. Which Phospholipid synthesis enhanced (SHSY-5Y cells) did it give?
Its Phospholipid synthesis enhanced is “enhanced”.

What about the “Synthesis of total phospholipids, PC, and phosphatidylethanolamine” value (SHSY-5Y cells; range of dosages, FIG. 3B) of the same molecule?
The value was “increased”.

And the “Brain phospholipid levels” value ([1]; 3 weeks)?
The value was “increased”.

With `CCC=CCC=CCC=CCC=CCC=CCCCC(=O)O` [EPA, 5,8,11,14,17-eicosapentaenoic acid] as the molecule, how does the “Brain phospholipid levels” value ([1]; 3 weeks) read?
Its value is “increased”.

With `O=c1ccn([C@@H]2O[C@H](COP(=O)(O)O)[C@@H](O)[C@H]2O)c(=O)[nH]1` [UMP, uridine monophosphate] as the molecule, how does the “Effects on brain phospholipids after 1 week of treatment” value ([1]; 1 week) read?
The value was “no significant effects”.

And the “Increases in brain phospholipids” value ([1]; 3 weeks)?
The value was “smaller but still significant increases”.

What about the “Increase in levels of total phospholipids over control group” value ([1]; 4 weeks, gerbil brain) of the same molecule?
The value was 5%.

And the “Total PtdCho” value ([1]; Table 5 part A)?
The value was 171 ± 8 nmol/mg prt.

And the “Total PtdEtn” value ([1]; Table 5 part A)?
The value was 84 ± 8 nmol/mg prt.

And the “Total PtdSer” value ([1]; Table 5 part A)?
Its value is 35 ± 3 nmol/mg prt.

And the “Total Ptdins” value ([1]; Table 5 part A)?
The value was 31 ± 2 nmol/mg prt.

What about the “Total PtdEtn” value ([1]; Table 5 part B, One Week) of the same molecule?
The value was 63 ± 4 nmol/mg prt.

What about the “Total PtdSer” value ([1]; Table 5 part B, One Week) of the same molecule?
The value was 39 ± 1 nmol/mg prt.

And the “Total Ptdins” value ([1]; Table 5 part B, One Week)?
The value was 20 ± 4 nmol/mg prt.

What about the “Total PtdEtn” value ([1]; Table 5 part B, Three Weeks) of the same molecule?
Its value is 87 ± 4 nmol/mg prt.

What about the “Total PtdSer” value ([1]; Table 5 part B, Three Weeks) of the same molecule?
Its value is 42 ± 2 nmol/mg prt.

And the “Total Ptdins” value ([1]; Table 5 part B, Three Weeks)?
Its value is 25 ± 1 nmol/mg prt.

And the “CDP-choline levels (FIG. 5A)” value (brain CDP-choline levels)?
The value was “decreased”.

What about the “CDP-ethanolamine levels (FIG. 5B)” value (brain CDP-choline levels) of the same molecule?
The value was “decreased”.

What about the PC ([2]; Table 8, nmol per mg protein) of the same molecule?
Its PC is 95.3 nmol/mg protein.

And the PE ([2]; Table 8, nmol per mg protein)?
Its PE is 75.6 nmol/mg protein.

What about the PI ([2]; Table 8, nmol per mg protein) of the same molecule?
Its PI is 3.92 nmol/mg protein.

And the SM ([2]; Table 8, nmol per mg protein)?
The SM was 5.27 nmol/mg protein.

What about the “Total Phospholipids” value ([2]; Table 8, nmol per mg protein) of the same molecule?
Its value is 282.2 nmol/mg protein.

What about the PC [2, 3] of the same molecule?
The PC was 8.11 nmol/microgram DNA.

What about the PE [2, 3] of the same molecule?
The PE was 6.56 nmol/microgram DNA.

And the PI [2, 3]?
The PI was 0.352 nmol/microgram DNA.

What about the SM [2, 3] of the same molecule?
The SM was 0.458 nmol/microgram DNA.

What about the “Total Phospholipids” value [2, 3] of the same molecule?
Its value is 24.78 nmol/microgram DNA.

For `CCCCCCCC/C=C\CCCCCCCC(=O)O` [oleic acid, reference compound], which “Phosphatidylcholine (PC) synthesis significantly increased (incorporation of 14C label into PC)” value (PC-12 cells) is on record?
The value was “not”.

What does the source list for `CCCCCCCCCCCCCCCC(=O)O` [palmitic acid, reference compound]?
Phosphatidylcholine (PC) synthesis significantly increased (incorporation of 14C label into PC) (PC-12 cells): not; Phospholipid synthesis enhanced (SHSY-5Y cells): not
